According to a melting point compilation (Tetko et al.; mined from patent text by program, amines drawn as free bases though some values may be those of a salt):

First: CC(=O)N[C@@H](CSC(=O)C(C)C)C(=O)NCCSC(=O)C(C)(C)C
Second: CC(=O)SCC(C)C(=O)N(CC(=O)O)C1CCCCC1 (stereo not given)
The melting point of the first is lower: 101 to 102 °C for the first, 142 to 144 °C for the second.

Compared with CCOC(=O)COc1ccc2c(c1[N+](=O)[O-])C(=O)CC2, CCOC(=O)c1ccc2nc3cscc3c(=O)n2c1 is higher in melting point: 137 to 139 °C for the first, 175 °C for the second.

First: COc1ccc(CNc2nc(N3CCn4ccnc4C3)ncc2C(=O)NCC2CN(C)CCO2)cc1Cl (stereo not given)
Second: COc1ccc(C2CC(=O)N(c3ccnc(NC(=O)NCc4ccccn4)c3)C2)cc1 (stereo not given)
The melting point of the first is lower: 132 to 134 °C for the first, 159 to 161 °C for the second.

First: CC(=O)NC[C@H]1CN(c2ccc(C3CCN(C(=O)OC(C)(C)C)CC3)c(F)c2)C(=O)O1
Second: CC(C)(C)OC(=O)N[C@H]1CCN(c2nc3c(cc2F)c(=O)c(C(=O)O)cn3C2CC2)C1
The melting point of the first is lower: 144 to 146 °C for the first, 247 to 249 °C for the second.

CCC(=O)c1c(CC)n(Cc2ccccc2Cl)c2cc(-c3nnn[nH]3)ccc12 and CCCCc1nc(Cl)c(C=O)n1Cc1ccc(-c2ccccc2-c2n[nH]c(=O)o2)cc1 cannot be ordered by melting point: 178 to 181 °C for the first, 178 to 179 °C for the second.

Compared with CC1(C)CCC2(C(=O)O)CCC3(C)C(=CCC4C5(C)CC(O)C(O)C(C)(CO)C5CCC43C)C2C1O (stereo not given), CCC(C(C)C)C1OC1C(C)C1CCC2C3CCC4=CC(=O)CCC4(C)C3CCC12C (stereo not given) is lower in melting point: 220 to 222 °C for the first, 111 to 112 °C for the second.

Compared with CC(=O)Nc1cc2c(cc1Oc1ccc(F)cc1F)C(=O)CC2c1ccccc1 (stereo not given), O=C(Nc1ccccc1F)C1C(=O)Sc2ccccc21 (stereo not given) is lower in melting point: 163 °C for the first, 155 to 156 °C for the second.

First: C(=C(c1ccccc1)c1ccccc1)C1CCN(CCCCCCc2cncnc2)CC1
Second: O=C1NC(CN2CCN(c3ccccc3)CC2)Cc2c[nH]c3cccc1c23 (stereo not given)
The melting point of the first is lower: 88 to 90 °C for the first, 184 to 185 °C for the second.

Compared with CON=C(C#N)c1ccccc1S(N)(=O)=O, N#CC(=NO)c1cccc(Oc2ccccc2)c1 is higher in melting point: 82 to 90 °C for the first, 124 to 125 °C for the second.

First: N#Cc1cc(N)ccc1N1CCCCC1
Second: O=C1c2ccc(Cl)c3c(N4CCCC4)cc(Cl)c(c23)C(=O)N1O
The melting point of the first is lower: 148 to 149 °C for the first, 243 to 245 °C for the second.

First: O=C(c1cccs1)c1cnn2c(-c3cccc(-c4ccc(CO)cc4)c3)ccnc12
Second: CCn1nc(-c2ncc(NCc3ccc(OC)cc3)nc2-c2ccccc2)ccc1=O
The melting point of the first is lower: 106 to 110 °C for the first, 148 to 150 °C for the second.

First: OCc1cc(C(F)(F)F)ccc1I
Second: CC(C)Cn1nc(-c2ccc(C(F)(F)F)cc2)cc(C(=O)O)c1=O
The melting point of the first is lower: 81 to 82 °C for the first, 184 to 185 °C for the second.

Compared with CCn1cc(C(=O)O)c(=O)c2cc(F)c(N[C@@H]3CCC[C@@H]3N)cc21 (relative stereo), CCn1cc(C(=O)O)c(=O)c2cc(F)c(C(=O)CBr)c(F)c21 is lower in melting point: 233 to 235 °C for the first, 213 to 215 °C for the second.

First: CN1c2ccc(Cl)cc2C(c2ccccc2)=NCC1CN1CCCCC1 (stereo not given)
Second: CCC1CCCCN1C(=O)C=Cc1c(-c2cccc(N(C)C)c2)nn2ccccc12 (stereo not given)
The melting point of the first is lower: 143 to 145 °C for the first, 180 to 184 °C for the second.

Compared with CC1Cc2c(cc(C(C)(C)C)c(O)c2C(C)(C)C)S1 (stereo not given), CC(O)CSc1cc(C(C)(C)C)c(O)c(C(C)(C)C)c1 (stereo not given) is lower in melting point: 96.7 °C for the first, 82 °C for the second.

First: N#Cc1cc(O)ccc1[N+](=O)[O-]
Second: Cc1cc(O)cc(C)c1[N+](=O)[O-]
The melting point of the first is higher: 200 to 202 °C for the first, 106 to 108 °C for the second.

First: CCCCCCCCOc1cccc2c1OCO2
Second: CCCc1c(OCCCCC(=O)N(C)C)ccc(C(C)=O)c1O
The melting point of the first is higher: 120 °C for the first, 95 to 97 °C for the second.

Compared with Cc1cc(-c2cc(C(F)(F)F)nc(-n3cnc(-c4ccc(S(N)(=O)=O)s4)c3)n2)ccc1C(F)(F)F, Cc1cc(N)nc(CCc2nc3cc(-c4ccc(S(=O)(=O)N5CCCCC5)cc4)cnc3[nH]2)c1 is lower in melting point: 260 °C for the first, 233 °C for the second.

First: C=CS(=O)(=O)c1ccc(/C(=C\C2CCCCC2)C(=O)OC)cc1Cl
Second: COc1ccc(C(=O)Nc2c(Cl)cncc2Cl)cc1OC1CCCC1F (stereo not given)
The melting point of the first is lower: 105 to 108 °C for the first, 167 to 169 °C for the second.

Compared with CCCSc1ccc2c3c(cccc13)C(=O)N2, CCC(=O)Nc1c(C(=O)c2cc(Cl)ccc2[N+](=O)[O-])[nH]c2cc(Cl)ccc12 is higher in melting point: 145 to 148 °C for the first, 245 to 246 °C for the second.

First: O=C(C=Cc1ccc(Br)s1)Nc1nnn[nH]1
Second: CN(C)C(=O)Nc1nc2ccccc2s1
The melting point of the first is higher: 268 °C for the first, 214 to 216 °C for the second.

First: COc1ccc2cc([C@H](C)C(=O)OCCOc3ccc(OCCO[N+](=O)[O-])cc3)ccc2c1
Second: COC(=O)C(=O)c1ccc(OCCOc2ccnc3ccccc23)cc1
The melting point of the first is lower: 67 to 69 °C for the first, 135 to 136 °C for the second.

First: NC(=O)c1sc2nccc(N3CCCN(c4ccc(Cl)cc4)CC3)c2c1N
Second: Oc1ccc(N2CCN(c3nncc4ccccc34)CC2)cc1
The melting point of the first is lower: 92 to 96 °C for the first, 244 to 245 °C for the second.

First: CCOC(=O)N[C@H](C(=O)NN(Cc1ccc(-c2cncs2)cc1)C[C@H](O)[C@H](Cc1ccccc1)NC(=O)[C@@H](NC(=O)OC)C(C)C)C(C)C
Second: CCOC(=O)c1ccc(N(Cc2ccc(Cl)cc2)C(=O)OCC)cc1
The melting point of the first is higher: 243 to 244 °C for the first, 43 to 46 °C for the second.

First: Cc1cc(F)ccc1-c1nc(NCCNC(=O)NC2CCCCC2)nc2c1ccc(=O)n2-c1c(F)cccc1F
Second: COc1cc(Cl)ccc1CN1C(=O)C(C)(c2cc(C(=O)N3CCCCC3)ccc2Cl)c2cc(Cl)ccc21 (stereo not given)
The melting point of the first is lower: 131 to 144 °C for the first, 205 °C for the second.

First: Cc1nnc(O[Si](C)(C)C)nc1O[Si](C)(C)C
Second: Cc1ncn(C)c1CO
The melting point of the first is lower: 43 °C for the first, 125 to 127 °C for the second.

First: COc1ccc([C@H]2CCCC[C@H]2NC(=O)c2ccc(C(=O)c3ccccc3)cc2)cc1OC
Second: COc1cc(C(=O)O)ccc1-c1ccc(-c2ccccc2)c(-c2ccc3c(c2)C(C)(C)CCC3(C)C)c1
The melting point of the first is lower: 119 to 122 °C for the first, 144 to 146 °C for the second.

Compared with Cc1nc2ccccn2c1C1=NNC(=O)CO1, CCOC(=O)c1cnn2c1c(OCC)nc1ccccc12 is lower in melting point: 278 to 280 °C for the first, 88 to 90 °C for the second.

First: OCC1CC(n2c(Br)nc3cc(Cl)c(Cl)cc32)C(O)C1O (stereo not given)
Second: Cc1nc2ccc(S(=O)(=O)n3c(COC(C)(C)C(=O)O)cc4cc(Cl)ccc43)cc2s1
The melting point of the first is higher: 208 to 211 °C for the first, 172 to 174 °C for the second.

Compared with O=Cc1cccc(OCc2ccc3ccccc3c2)c1, OCCCCOc1ccc2ccccc2c1 is lower in melting point: 105 to 106 °C for the first, 66.5 to 67.5 °C for the second.

First: CCCc1c(OCCCCCOc2ccc3c(c2CCC)OC(C(=O)OC)CC3)ccc(C(C)=O)c1O (stereo not given)
Second: COCCOc1cc2cc(C(=O)OC)c(C(=O)OC)c(-c3ccncc3)c2cc1OC
The melting point of the first is lower: 57 to 58 °C for the first, 156 to 158 °C for the second.

First: O=C(NCCc1ccccc1)c1ccccc1-c1ccccc1CNS(=O)(=O)c1cccc(F)c1
Second: CS(=O)(=O)c1ccc(-c2c(-c3ccc(F)cc3)c(C(F)(F)F)nn2-c2ccccc2)cc1
The melting point of the first is lower: 153 °C for the first, 202 to 203 °C for the second.

C#CCNC(=O)c1ncn2c1[C@@H]1CCN1C(=O)c1sccc1-2 and N#Cc1ncn2c1[C@@H]1CCN1C(=O)c1ccccc1-2 cannot be ordered by melting point: 233 to 235 °C for the first, 232 to 234 °C for the second.

Compared with CCn1nnc(C(C=CC=O)=C(c2ccc(F)cc2)c2ccc(F)cc2)n1, Fc1ccc(C(=C(c2ccccc2)C(F)(F)F)c2ccc(OCCBr)cc2)cc1 is higher in melting point: 117 to 120 °C for the first, 142 to 144 °C for the second.

First: O=C(O)Cc1c[nH]c(-c2cc3nc(C(=O)O)c(=O)[nH]c3cc2[N+](=O)[O-])n1
Second: O=C(O)CNC(=O)c1nc(Cl)c2ccc(OCc3ccccc3)cc2c1O
The melting point of the first is higher: greater than 300 °C for the first, 210 to 211 °C for the second.

First: CC(C)c1ncc(OCc2ccccc2)c(O)n1
Second: CCCCn1cc(CCN(C)C)c2c(OCc3ccccc3)cc(F)cc21
The melting point of the first is higher: 198 °C for the first, 86 to 89 °C for the second.

Compared with CC(C#N)(Cc1c[nH]cn1)c1ccccc1 (stereo not given), N#CC1=C(c2ccccc2)Nc2ccccc2S1=O (stereo not given) is lower in melting point: 187 to 189 °C for the first, 182 to 184 °C for the second.

Compared with CCCCOCCCNC(=O)C(C)(C(C)C)C(C)C, CC(C)N(CCC(CCN(C(C)C)C(C)C)(C(N)=O)c1ccccc1)C(C)C is higher in melting point: 40 °C for the first, 102 to 103 °C for the second.

First: CSCCNC(=O)c1sc(-c2cccnc2)nc1Cl
Second: COC(=O)CCCc1cc2nc(Cl)ccc2n1S(=O)(=O)c1cccc(-c2nccs2)c1
The melting point of the first is higher: 97 to 98 °C for the first, 82 to 86 °C for the second.

First: CCCOc1cc(C(=O)O)cc(N)c1-c1ccccc1
Second: NC(=O)c1cc(OCCCCNCc2ccccc2)ccc1O
The melting point of the first is higher: 101 to 102 °C for the first, 78 to 81 °C for the second.

First: CC1(N)CN(C(=O)Nc2ccc(C(F)(F)F)cc2)N=C1c1ccc(Cl)cc1 (stereo not given)
Second: CCOC(=O)C1(C)C(=O)Nc2cc(NC(=O)c3ccncc3)ccc21 (stereo not given)
The melting point of the first is lower: 165 to 167 °C for the first, 222 to 224 °C for the second.

Going from BrCCON=C1c2ccccc2-n2cccc21 to CC(=O)Nc1ccc(OCc2nc3ccccc3o2)cc1C, the melting point rises from 65 °C to 160 °C.

Compared with Cc1c(-c2ccccc2)oc(=O)c(Sc2ccccc2)c1O, CC(C)Oc1cccc(OC(=O)NCc2c(-c3ccccc3)c3cc(Cl)ccc3c(=O)n2C)c1 is lower in melting point: 166 to 167 °C for the first, 158 to 160 °C for the second.

First: N#CCc1ccc(F)cc1C(=O)O
Second: Oc1cccc(O)c1Br
The melting point of the first is higher: 140 °C for the first, 86 to 88 °C for the second.

First: CCN(CC)CCCOc1ccc(C(=O)c2c(-c3ccc(OC)cc3)oc3ccccc23)cc1
Second: COc1ccc(CCN(C)CCCCc2ccc(NC(=O)c3cccc4c(=O)c5ccccc5[nH]c34)cc2)cc1
The melting point of the first is lower: 102 to 110 °C for the first, 143 °C for the second.

First: CCCCN(C)CCc1ccc(Nc2ncc3c(n2)-c2ccccc2C(c2ccccc2C(F)(F)F)C3)cc1 (stereo not given)
Second: COC(=O)c1ccc(COc2cc(C(C)(C)C)nn2Cc2ccc(C(=O)OC)cc2)cc1
The melting point of the first is lower: 80 to 82 °C for the first, 93 to 94 °C for the second.

First: CC(C)CC(=O)C(=O)NCC(=O)c1ccccc1
Second: O=C1NCCCN1C1CCN(Cc2ccccc2)CC1
The melting point of the first is higher: 193 to 195 °C for the first, 178 to 180 °C for the second.

First: CCc1c(C)c(=O)n(-c2cc(OC(C)C)c(Cl)cc2F)c(=O)n1C
Second: Cc1cc(Br)ccc1-n1c(C(F)(F)F)nn(C)c1=O
The melting point of the first is higher: 88 to 91 °C for the first, 80 to 83 °C for the second.

Compared with O=c1cc(-c2ccoc2)c2ccc(Sc3cc(F)cc(-c4cccnc4)c3)cc2o1, Cn1cc(-c2cccc(Cl)c2)c(=S)c(-c2cccc(Cl)c2)c1 is higher in melting point: 169 to 170 °C for the first, 210 to 212 °C for the second.

First: CNC(=O)CCNC(=O)NOCCCl
Second: COc1ccc(-c2sc3cc(OC)ccc3c2C(=O)c2cc(OC)cc(OC)c2)cc1
The melting point of the first is higher: 125 to 126 °C for the first, 114 to 120 °C for the second.
